US20080233210A1, “Co-Biocidal Formulation for Polymeric Materials” (U.S. BORAX INC., priority 2005, published 2008)

Assays:
[1] = test system: Aspergillus niger, Penicillium pinophilum, Chetomium globusum, Gliocladium virens, Aurebasidium pullulans; experiment: ASTM G-21 fungi exposure of dried paint coating films; type: cell-based; conditions: coating film, ASTM G-21, 28 days; very high concentrations of Chlortram (0.33%)
Experimental: The coatings were cast on flat polyethylene sheeting and dried into 10 mil thick film before removal from the polyethylene substrate. The dried paint coatings were cut into 2″×2″ square specimens, sterilized with 30 kGy EB radiation and exposed to fungi attack according to ASTM G-21. After 28 days exposure to the fungi at 98% relative humidity and 28° C., the specimens were evaluated using two scales.

[2] = test system: Aspergillus niger, Penicillium pinophilum, Chetomium globusum, Gliocladium virens, Aurebasidium pullulans; experiment: ASTM G-21 fungi resistance of extruded wood/thermoplastic composite boards, unweathered or after QUV accelerated weathering with leaching; type: cell-based; design: key to Visual Assessment of Fungal Growth (0-4 scale) / Visual assessment of fungal growth, ZB = 2%, Weathering 0 h: 0: None; Traces of growth (less than 10%); 2: Light growth (10 to 30%); Medium growth (more than 30 to 60%); 4: Heavy growth (60% to complete coverage); conditions: for Visual Assessment of Fungal Growth (0-4 scale): pine WPC without UV stabilizer; for Visual Assessment of Fungal Growth (0-4 scale) / visual assessment, 0-4 fungal growth assessment scale: cobiocide content 0% (borate alone); for visual assessment, 0-4 fungal growth assessment scale: oak WPC, no UV stabilizer package
Experimental: Three 50×50×4 mm specimens were cut from the core of extruded boards, sterilized with a 30 kGy dose of Electron beam radiation and exposed to fungi attack according to ASTM G-21.
After 28 days exposure to the fungi at 98% relative humidity and 28° C., specimens were evaluated using the first scale, from 0-4 as recommended by ASTM G-21 (see Table 3). Results are shown in Table 4 with the summary in Tables 5-7.
Samples prepared according to Example 1 were exposed to accelerated weathering using a QUV accelerated weathering chamber with fluorescent bulb combined with leaching cycle. […] This includes cycles comprised of 8 h UV light (UVA 340 lamps @0.77 W/m^2/nm) @60° C. followed by 4 hours condensation @50° C. Samples were exposed to these conditions for 15 hours and then leached in water. Leaching consisted of 4 hours soaking and 3 hours drip dry (1 hours was required for sample handling). […] After exposure, three 1″×2.5″×⅛″ specimens were cut from the sample. The surface exposed to light and leaching and tested for fungi resistance as described in example 2. Results are presented in Table 3 with summary in Tables 4-6
Samples prepared according to Example 1 were exposed to accelerated weathering using a QUV accelerated weathering chamber with fluorescent bulb combined with leaching cycle. Total exposure time was 1000 hours. This includes cycles comprised of 8 h UV light (UVA 340 lamps @0.77 W/m^2/nm) @60° C. followed by 4 hours condensation @50° C. Samples were exposed to these conditions for 16 hours and then leached in water. Leaching consisted of 4 hours soaking and 3 hours drip dry (1 h was required for sample handling). […] After exposure, three 1″×2.5″×⅛″ specimens were cut from the sample. The surface exposed to light and leaching and tested for fungi resistance as described in Example 2. Results are presented in Table 3 with summary in Tables 4-6.

N#Cc1c(Cl)c(Cl)c(Cl)c(C#N)c1Cl [Chlortram, 2,4,5,6 tetrachloro-1,3-benzene-dicarbonitrile]
fungal growth observed on coating specimens [1]: No fungal growth

OB(O)O [BA]
Visual Assessment of Fungal Growth (0-4 scale) ([2]; BA = 1%, weathering 0 hours): 4 (Heavy growth (60% to complete coverage))
Visual Assessment of Fungal Growth (0-4 scale) ([2]; BA = 2%, weathering 0 hours): 3 (Medium growth (more than 30 to 60%))

Zinc borate [ZB]
visual assessment, 0-4 fungal growth assessment scale ([2]; ZB = 1%, weathering 0 h): 4 (Heavy growth (60% to complete coverage))
visual assessment, 0-4 fungal growth assessment scale ([2]; ZB = 1%, weathering 500 h): 4 (Heavy growth (60% to complete coverage))
visual assessment, 0-4 fungal growth assessment scale ([2]; ZB = 1%, weathering 1000 h): 3 (Medium growth (more than 30 to 60%))
visual assessment, 0-4 fungal growth assessment scale ([2]; ZB = 1.5%, weathering 0 h): 2 (Light growth (10 to 30%))
visual assessment, 0-4 fungal growth assessment scale ([2]; ZB = 2%, weathering 0 h): 2 (Light growth (10 to 30%))
visual assessment, 0-4 fungal growth assessment scale ([2]; ZB = 2%, weathering 500 h): 3 (Medium growth (more than 30 to 60%))
visual assessment, 0-4 fungal growth assessment scale ([2]; ZB = 2%, weathering 1000 h): 3 (Medium growth (more than 30 to 60%))
Visual assessment of fungal growth, ZB = 1%, Weathering 0 h ([2]; pine WPC with UV stabilizer package, cobiocide content 0%, ZB = 1%, 0 h): 1 (Traces of growth (less than 10%))
Visual assessment of fungal growth, ZB = 1%, Weathering 500 h ([2]; pine WPC with UV stabilizer package, cobiocide content 0%, ZB = 1%, 500 h): 4 (Heavy growth (60% to complete coverage))
Visual assessment of fungal growth, ZB = 1%, Weathering 1000 h ([2]; pine WPC with UV stabilizer package, cobiocide content 0%, ZB = 1%, 1000 h): 4 (Heavy growth (60% to complete coverage))
Visual assessment of fungal growth, ZB = 2%, Weathering 0 h ([2]; pine WPC with UV stabilizer package, cobiocide content 0%, ZB = 2%, 0 h): 0
Visual assessment of fungal growth, ZB = 2%, Weathering 500 h ([2]; pine WPC with UV stabilizer package, cobiocide content 0%, ZB = 2%, 500 h): 3 (Medium growth (more than 30 to 60%))
Visual assessment of fungal growth, ZB = 2%, Weathering 1000 h ([2]; pine WPC with UV stabilizer package, cobiocide content 0%, ZB = 2%, 1000 h): 4 (Heavy growth (60% to complete coverage))
Visual Assessment of Fungal Growth (0-4 scale) ([2]; ZB = 1%, weathering 0 h): 2 (Light growth (10 to 30%))
Visual Assessment of Fungal Growth (0-4 scale) ([2]; ZB = 1%, weathering 500 h): 4 (Heavy growth (60% to complete coverage))
Visual Assessment of Fungal Growth (0-4 scale) ([2]; ZB = 1%, weathering 1000 h): 4 (Heavy growth (60% to complete coverage))
Visual Assessment of Fungal Growth (0-4 scale) ([2]; ZB = 1.5%, weathering 0 hours): 1 (Traces of growth (less than 10%))
Visual Assessment of Fungal Growth (0-4 scale) ([2]; ZB = 2%, weathering 0 h): 0
Visual Assessment of Fungal Growth (0-4 scale) ([2]; ZB = 2%, weathering 500 h): 4 (Heavy growth (60% to complete coverage))
